The values that follow come from patent US12629358B2, “Compound used as RET kinase inhibitor and application thereof” (TYK MEDICINES, INC., priority 2019, dated 2026).

Broadly, the AUC(0-inf) is the area under the concentration-time curve extrapolated to infinity. Low readings indicate low exposure, high ones high exposure. What is called AUC(0-t) is the area under the concentration-time curve up to a stated or last time point. Read a low AUC(0-t) as less exposure. For orientation: half-life means the time needed for the level to fall by half in the phase considered. A higher half-life goes with slow loss. Broadly, the Cmax is the maximum level reached in the sampled fluid or tissue. By Tmax is commonly meant the time from dosing to the highest level. A word on the IC50: it is the point on the concentration scale where inhibition reaches its midpoint. Read a low IC50 as greater potency in that assay.

The nature of data set [1]: Metabolism test of drugs: plasma pharmacokinetics after intravenous and intragastric administration. The class given is in vivo. The following applies: SD rats; for CL_obs / AUC(0-inf) / AUC(0-t) / half-life / MRT / Vd / Cmax / Tmax: plasma; for F: PO 10 mg/kg vs IV 2 mg/kg; for AUC(0-inf) / AUC(0-t) / half-life / MRT / Vd / Cmax / Tmax: male, rat; for MRT: read-out: MRTINF_ obs; for Vd: read-out: Vss. How it is done: Four small molecule compounds of BLU-667, compound C2, compound C4 and compound C8 were administered to SD rats by intravenous and intragastric administration respectively. Blood samples were collected at different time points to determine the concentration of drugs in plasma after administration and calculate the related pharmacokinetics parameters.
The vehicle of BLU-667, C2, C4 and C8 was 10% NMP+49% PEG400+1% Tween80+40% Water. The specific preparation method was as follows: proper amount of tested samples was weighed, dissolved in 10% NMP+49% PEG400+1% Tween80+40% Water, mixed well by vortex for later use.
LC-MS/MS was used by the analysis department of the experimental organization to detect and analyze the prepared solution of sample for test.
Healthy male SD rats were used in this research. Animal weight: 150-200 g. All animals fasted before administration, and resumed feeding 4 hours after administration.
Time points for blood collection were: • Intravenous administration (groups 1, 3 and 5): 0.0833, 0.25, 0.5, 1, 2, 4, 8, 12 and 24 hours after administration. (±2 min at time point ≤2 hr, ±15 min at other points.) • Oral administration: (groups 2, 4, 6 and 7): 0.25, 0.5, 1, 2, 4, 8, 12 and 24 hours after administration. (±2 m at time point […] at other points.)
About 0.1 mL of blood was collected from each animal through jugular vein every time, and EDTA or heparin sodium was used as anticoagulant. Blood samples were collected and placed on ice, and plasma was separated by centrifugation (centrifugation conditions: 5000 r/min, 6 min, 4° C.).
LC-MS/MS was used by the analysis department of the experimental organization to analyze the plasma samples of rats.
According to the data of blood drug concentration of the drug, the pharmacokinetic parameters AUC0→t, AUC0→∞, MRT0→∞, CMax, TMax, Vss, F, CL and T1/2 as well as their mean and standard deviation of the samples for test were calculated respectively by pharmacokinetic calculation software WinNonlin non-compartment model.
The main pharmacokinetic parameters of BLU-667, compound C2, compound C4 and compound C8 in plasma after intravenous and single oral administration of BLU-667, compound C2, compound C4 and compound C8 in SD rats were shown in Table 3

Data set [2] deals with tumor patients with RET fusion and mutation. Particulars: Phase I, cited from earlier work.
In a further data set the target is wild-type RET kinase (Homo sapiens, UniProt P07949). Briefly: Enzyme activity test against wild-type RET kinase (33P-ATP filter-binding kinase activity assay). Type of data set: biochemical. Particulars: ATP Km concentration, 10 concentrations. The protocol: A biological activity test experiment was conducted below for some compounds of the above Examples and Comparative Example.
[…]. The biological activity screening of the compounds will be determined repeatedly at 10 concentrations.
Each sample was prepared into a solution with a concentration of 10 mM.
The test compound was dissolved in 100% dimethyl sulfoxide to a specific concentration. Integra Viaflo Assist was used to assist DMSO for (continuous) dilution.
Kinase was added to the newly prepared basic reaction buffer
Adding any desired cofactors to the substrate solution.
Adding wild-type RET kinase into the substrate solution and gently mixing;
Acoustic technology (Echo 550; Nanoliter range) was used to feed the compounds in 100% of dimethyl sulfoxide into the kinase reaction mixture and incubated at room temperature for 20 minutes.
33P-ATP (specific activity 10 Ci/l) was added to the reaction mixture to start the reaction.
Incubated at room temperature for 2 hours
Radioactivity was detected by filter-binding method.
Kinase activity data was expressed as the percentage of remaining kinase activity in the test sample compared to the vehicle (dimethyl sulfoxide) reaction. Prism (GRAPHPAD software) was used to obtain IC50 value and curve-fitting.

The target in a further data set is T1, Ba/F3-KIF5B-RET cells (Homo sapiens, UniProt P07949).
T1 construct: host or cells: Ba/F3 (BaF3 from RIKEN BRC CELL BANK); the other entry of the earlier key: KIF5B (P33176, Kinesin-1 heavy chain)
T1 sequence (P07949 713-1063 limits assumed): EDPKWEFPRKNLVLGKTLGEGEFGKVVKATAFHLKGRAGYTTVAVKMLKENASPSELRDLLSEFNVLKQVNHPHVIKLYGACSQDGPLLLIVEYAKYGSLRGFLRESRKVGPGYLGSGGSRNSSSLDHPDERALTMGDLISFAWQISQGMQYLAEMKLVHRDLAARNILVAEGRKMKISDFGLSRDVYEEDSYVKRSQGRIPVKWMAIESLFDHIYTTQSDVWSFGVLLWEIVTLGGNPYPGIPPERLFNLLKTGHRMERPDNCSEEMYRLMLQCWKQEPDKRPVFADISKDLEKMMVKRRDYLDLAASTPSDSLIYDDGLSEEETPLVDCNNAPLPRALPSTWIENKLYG
Briefly: Cell anti-proliferation experiment (CellTiter-Glo), Ba/F3-KIF5B-RET. The class given is cell-based. The following applies: cell viability, 72 h. How it is done:
(§1) Ba/F3-KIF5B-RET, Ba/F3-KIF5B-RET-V804L and Ba/F3-KIF5B-RET-V804M cells were constructed by PreceDo Pharmaceuticals Co., Ltd.
(§2) Ba/F3-KIF5B-RET, Ba/F3-KIF5B-RET-V804L and Ba/F3-KIF5B-RET-V804M medium: RPMI-1640+10% FBS+1% P/S.
(§3) A 1000× solution of the compound was prepared with DMSO, the compound was diluted to 20 times final concentration with a growth medium, and […] was added.
(§4) The suspended cells were rotated downward, resuscitated in the growth medium, and then counted with a cell counter. The cell suspension was diluted to the desired concentration in the growth medium. 95p L cell suspension was fed to a 96-well plate. 5 μL of 20× compound was added to the […], and the final DMSO concentration per well was 0.1%; incubated at 37° C. with 5% CO2 for 72 h
(§5) The plate was equilibrated to room temperature before measurement, 50 μl of CellTiter-Glo® reagent was added into each well, mixed on a shaker for 2 minutes, incubated at room temperature for 10 minutes, and recorded with Paradigm.
(§6) Cell viability was analyzed using Graphpad 7.0 software according to the formula Cell viability (CV %)=(RLU compound−RLU blank)/(RLU control−RLU blank)*100%, and the corresponding IC50 data were calculated as shown in Table 2

For data set [3], the target named is T2, Ba/F3-KIF5B-RET-V804L cells (Homo sapiens, UniProt P07949, V804L).
T2 construct: host or cells: Ba/F3 (BaF3 from RIKEN BRC CELL BANK); the other entry of the earlier key: KIF5B (P33176, Kinesin-1 heavy chain)
T2 sequence (P07949 713-1063 V804L limits assumed): T1 sequence (P07949 713-1063 limits assumed) with V92L
Briefly: Cell anti-proliferation experiment (CellTiter-Glo), Ba/F3-KIF5B-RET-V804L. Type of data set: cell-based. The following applies: cell viability, 72 h. How it is done: as §1, §2, §3, §4, §5, §6
Background: Cellular ATP, detected with luciferase, serves as a proxy for viable cell number.

Data set [4] has as its target T3, Ba/F3-KIF5B-RET-V804M cells (Homo sapiens, UniProt P07949, V804M).
T3 construct: host or cells: Ba/F3 (BaF3 from RIKEN BRC CELL BANK); the other entry of the earlier key: KIF5B (P33176, Kinesin-1 heavy chain)
T3 sequence (P07949 713-1063 V804M limits assumed): T1 sequence (P07949 713-1063 limits assumed) with V92M
Briefly: Cell anti-proliferation experiment (CellTiter-Glo), Ba/F3-KIF5B-RET-V804M. The class given is cell-based. The following applies: cell viability, 72 h. How it is done:
as §1, §2, §3, §4, §5, §6

The mark [5] stands for this setting: PO, versus control compound (BLU-667).

Numbering of substitutions follows the chain as printed. Like-named read-outs stand apart in the source and are kept apart here.

Sequence of wild-type RET kinase (P07949 29-1114): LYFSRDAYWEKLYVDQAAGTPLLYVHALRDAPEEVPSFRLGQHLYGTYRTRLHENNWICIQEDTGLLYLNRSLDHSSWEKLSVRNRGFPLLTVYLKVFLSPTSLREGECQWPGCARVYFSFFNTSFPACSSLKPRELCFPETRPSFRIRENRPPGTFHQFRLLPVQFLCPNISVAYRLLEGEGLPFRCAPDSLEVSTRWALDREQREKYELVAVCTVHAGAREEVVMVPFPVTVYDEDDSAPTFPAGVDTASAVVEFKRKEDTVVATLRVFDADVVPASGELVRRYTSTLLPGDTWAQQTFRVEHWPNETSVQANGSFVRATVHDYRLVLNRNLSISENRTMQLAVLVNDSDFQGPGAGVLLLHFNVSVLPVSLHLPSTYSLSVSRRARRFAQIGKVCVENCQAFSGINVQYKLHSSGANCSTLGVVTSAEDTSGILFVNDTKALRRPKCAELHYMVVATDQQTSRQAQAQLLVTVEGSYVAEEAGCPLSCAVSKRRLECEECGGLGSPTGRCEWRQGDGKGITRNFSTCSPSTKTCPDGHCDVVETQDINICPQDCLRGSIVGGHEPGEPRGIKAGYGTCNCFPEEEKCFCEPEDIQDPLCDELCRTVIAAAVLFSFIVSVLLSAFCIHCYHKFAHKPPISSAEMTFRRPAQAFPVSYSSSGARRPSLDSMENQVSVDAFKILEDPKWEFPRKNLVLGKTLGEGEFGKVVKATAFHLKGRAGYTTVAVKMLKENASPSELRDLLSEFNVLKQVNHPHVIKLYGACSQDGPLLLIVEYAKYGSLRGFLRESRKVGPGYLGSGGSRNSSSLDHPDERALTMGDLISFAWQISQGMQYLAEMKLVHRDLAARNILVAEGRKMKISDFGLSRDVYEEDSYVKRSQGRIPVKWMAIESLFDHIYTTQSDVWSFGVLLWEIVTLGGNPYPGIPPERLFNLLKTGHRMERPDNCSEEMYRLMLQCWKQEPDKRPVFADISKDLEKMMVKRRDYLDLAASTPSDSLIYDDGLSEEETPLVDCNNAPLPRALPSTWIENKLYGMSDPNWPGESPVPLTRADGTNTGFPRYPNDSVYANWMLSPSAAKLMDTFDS

In data set [1] (IV, 2 mg/kg), `CO[C@]1(C(=O)N[C@@H](C)c2ccc(-n3cc(F)cn3)nc2)CC[C@H](c2nc(C)cc(Nc3cc(C)[nH]n3)n2)CC1` [BLU-667, reference compound] had a CL_obs of 24.5 mL/min/kg, an AUC(0-inf) of 1410 ng·h/mL, an AUC(0-t) of 1330 ng·h/mL and a half-life of 5.52 h. In data set [1] (IV, 2 mg/kg), the MRT came out at 6.1 h and the Vd was determined as 8.53 L/kg. In data set [1], this compound had an F of 61.14%. In data set [1] (PO, 10 mg/kg), the total exposure AUC(0-inf) worked out at 4110 ng·h/mL, the AUC(0-t) worked out at 4080 ng·h/mL, the peak level (Cmax) was 632 ng/mL and the Tmax was 4 h. Also, in data set [1] (PO, 10 mg/kg), the half-life is 3.36 h and the MRT worked out at 5.08 h. The ORR in data set [2] (patients with medullary thyroid carcinoma) is reported as 40%. For the same compound, in data set [2] (patients with non-small cell lung cancer), the ORR is 50%. Further, the “overall remission rate (ORR)” value in data set [2] (tumor patients with RET fusion and mutation) is on record as 45%.
`CO[C@]1(C(=O)N[C@@H](C)c2ccc(-n3cc(F)cn3)nc2)CC[C@H](c2nc(Nc3cc(C)[nH]n3)ccc2C#N)CC1` [Compound C2] came in with a half-maximal inhibitory concentration (IC50) on wild-type RET kinase of 0.00198 µM. In data set [1] (IV, 2 mg/kg), this compound gave a CL_obs of 8.67 mL/min/kg, an AUC(0-inf) of 3900 ng·h/mL, an AUC(0-t) of 3850 ng·h/mL and a half-life of 4.12 h. In addition, in data set [1] (IV, 2 mg/kg), the MRT was determined as 4.89 h and the Vd stood at 2.56 L/kg. In data set [1], this compound registered an F of 11.96%. Also, in data set [1] (PO, 10 mg/kg), the AUC(0-inf) amounted to 2320 ng·h/mL, the AUC(0-t) was 2300 ng·h/mL, the peak level (Cmax) was 325 ng/mL and the Tmax came out at 2 h. In data set [1] (PO, 10 mg/kg), the half-life is 3.26 h and the MRT was determined as 6.05 h. The IC50 against Ba/F3-KIF5B-RET cells worked out at 0.0231 µM. In data set [3], this compound yielded a 50% inhibitory concentration (IC50) of 0.0169 µM. The 50% inhibitory concentration (IC50) in data set [4] worked out at 0.0424 µM.
`CO[C@]1(C(=O)N[C@@H](C)c2ccc(-n3cc(F)cn3)nc2)CC[C@H](c2nc(Nc3cc(C)[nH]n3)cc3cccnc32)CC1` [Compound C4] yielded a half-inhibitory concentration (IC50) at wild-type RET kinase of 0.00102 µM. In data set [1] (IV, 2 mg/kg), the CL_obs was 7.67 mL/min/kg, the area under the curve AUC(0-inf) was determined as 4430 ng·h/mL, the AUC(0-t) worked out at 4390 ng·h/mL and the half-life is 4.19 h. Besides, in data set [1] (IV, 2 mg/kg), the MRT amounted to 3.74 h and the Vd came to 1.7 L/kg. In addition, in data set [1], the F is 49.85%. Moreover, in data set [1] (setting [5]), the “maximum blood drug concentration (Cmax) increased compared with the control compound” value is given as 3-4 times and the “plasma exposure amount AUC increased compared with the control compound” value was 2-3 times. Also, in data set [1] (PO, 10 mg/kg), the AUC(0-inf) turned out to be 11000 ng·h/mL, the AUC(0-t) stood at 10900 ng·h/mL, the Cmax was determined as 2460 ng/mL and the Tmax was 2 h. In data set [1] (PO, 10 mg/kg), the half-life is 3.18 h and the MRT was 4.3 h. The same compound returned an IC50 against Ba/F3-KIF5B-RET cells of 0.0091 µM. Moreover, the concentration for half-maximal inhibition (IC50) in data set [3] is 0.0071 µM. This compound also registered an IC50 in data set [4] of 0.0173 µM.
